In patent US20070020193A1, “Dronabinol compositions and methods for using same” (priority 2005, published 2007):

Key:
[1] = Example 1 single rising dose inhaled delta-9-THC study: plasma pharmacokinetics
Protocol: A randomized, double blind, placebo controlled, three way crossover, single rising dose human clinical study in two sequential groups (Groups I and II) of nine young healthy male subjects (18-45 years of age and body mass index (BMI) of 20-26 kg/m^2) of a metered dose inhalation composition according to one embodiment the present invention was conducted. Each subject received two ascending single doses of inhaled delta-9-THC and one single dose of inhaled placebo according to a three-way crossover balanced incomplete block design. The administered composition is detailed in Table 1. Composition I provides 0.3 mg per actuation, while Composition II provides 1.2 mg per actuation.
Each sequential dose level or period was separated by a washout period of two weeks, during which an interim safety and pharmacokinetic analysis was performed. A third group (Group III) of nine elderly healthy male and female subjects (65-80 years old and BMI 18-30 kg/m^2) was added after completion of the sixth study period to participate in a single treatment period. […] Five dose levels were evaluated: 0.3 mg, 1.2 mg, and 2.4 mg in Group I, 3.6 mg, 7.2 mg, and 9.6 mg in Group II, and 3.6 mg in Group III. Subjects were confined to the study center from the day prior to dosing until the 48 hour blood sample. Subjects returned to the center for 72, 96 and 120 hour pharmacokinetic samples. Various pharmacokinetic and pharmacodynamic measurements and sampling were taken according to the Assessment Flow Charts in FIG. 1 and FIG. 2. Safety was measured by monitoring adverse events, physical examination, clinical laboratory and pulmonary function tests, vital signs, 12 lead ECG, and telemetry.
Safety, pharmacokinetic and pharmacodynamic variables were estimated. Plasma concentrations of delta-9-THC (THC), 11-hydroxy-tetrahydrocanabinol (11-OH-THC) and delta-9-tetrahydrocannbinol-carboxylic acid (THC-COOH) were determined for pharmacokinetic analysis.
(§1) Whole blood samples were collected according to the assessment flowchart in EDTA tubes through venepuncture or indwelling catheter. Samples were immediately placed on ice and subsequently centrifuged within 30 minutes at 1,500 g for 10 minutes. Plasma was transferred into a 5 ml screw cap polypropylene tube, stoppered and stored at below minus 20° C. until transfer to the analytical laboratory for analysis. […] The measurement ranges were 0.05-30 ng/ml for delta-9-THC, 0.04-30 ng/ml for 11-OH-THC, and 0.25-10 ng/ml for THC-COOH.
Number of subjects, mean, standard deviation, coefficient variable (%) and geometric mean were calculated for all pharmacokinetic parameters.
For Example 1: A mixed ANOVA model with group and dose fixed effect and subject within group by dose as random effect was performed on the logarithms of the dose normalized pharmacokinetic parameters AUC, AUC0-t and Cmax. The overall treatment effect was tested by conventional F-test with Satterthwaites correction. Dose proportionality was tested using Helmert Contrasts and Reverse Helmert Contrasts. The within and between subject coefficient of variances were calculated from the estimated covariance parameters. Per dose level geometric means with 90% confidence interval were calculated for the dose-normalized values from the least squared means analysis outcomes. The difference between young and elderly subjects was explored using a one-way ANOVA.

[2] = Example 2 multiple rising dose inhaled delta-9-THC study: plasma pharmacokinetics
Protocol: A randomized, double-blind, placebo-controlled, multiple rising dose safety, tolerability, pharmacokinetic and pharmacodynamic study to assess two dose levels of inhaled delta-9-THC was conducted. Dose levels were studied in ascending order. Two consecutive groups (n=9/group) of healthy subjects were studied (Groups I and II). […] There was a lapse of at least 10 days between the groups for interim safety and pharmacokinetic analysis. Two dose levels were studied in ascending order. […] Subjects in each treatment Group (I or II) received single and multiple doses of inhaled delta-9-THC according to the following schedule:
For both dose levels, the first and the last dose of study drug was given under fasted conditions. Subjects were confined to the study site from the evening of Day −2 (Day 1 is the day of administration of the first dose of study drug) until the 120-hour blood sample following the final dose of study drug, resulting in an 18-day confinement period for subjects in Group I and a 25-day confinement period for Group II. Between the completion of Group I and the start of Group II, an interim safety and pharmacokinetic analysis was performed. Based on the results of the interim analyses, the dose level for investigation in Group II was determined.
Two MDI dosage strengths were used corresponding to the same formulations used in Example 1: one delivering 0.3 mg delta-9-THC (or placebo) per actuation and one delivering 1.2 mg delta-9-THC (or placebo) per actuation. The MDI consisted of a pressurized (via propellants) container and a metered-dose valve. The propellants provided the necessary force to expel the drug, and also acted as a solvent and diluent. The canister unit was provided within a mouthpiece (oral adapter), to expel an exact amount of drug, in the proper particle size distribution, upon each actuation. Two basic formulations containing 0.3 and 1.2 mg of delta-9-THC per 50 μL were developed with propellant 1,1,1,2 tetrafluoroethane 134a (HFA 134a), and ethanol as solvent. The formulations were made in accordance with the composition used in Example 1.
as §1
For Example 2: The statistical analysis encompassed an exploratory analysis of the single and multiple dose pharmacokinetics and dose proportionality of two dose levels of inhaled delta-9-THC in healthy subjects. Descriptive statistics included number of subjects, mean, standard deviation, coefficient of variation (%) and geometric mean for all pharmacokinetic parameters.
The exploratory analysis was performed on the logarithms of the dose-normalized pharmacokinetic parameters AUC(0-inf), AUC(0-t), AUC(0-τ) and Cmax. Dose proportionality was tested both at single dose and at multiple dose (steady state) by comparing the dose groups for all pharmacokinetic parameters by an analysis of variance with dose as fixed effect.
Dose proportionality was tested by the contrast between the dose groups. For this contrast on the logarithmic scale, p-values were given. After anti-logarithmic transformation, the resultant ratios of geometric means and 90% confidence intervals were given.
Accumulation was tested by comparing the steady state values for AUC(0-τ) with the single dose values for AUC(0-τ) by a mixed model analysis of variance with dose and day (with levels single dose and steady state) as fixed effects and subject within dose as random effect.

CCCCCc1cc(O)c2c(c1)OC(C)(C)C1CCC(CO)=CC21 (stereo not shown) [11-OH-THC, 11-hydroxy-tetrahydrocanabinol]
Cmax and AUC versus dose ([1]; 7.2 and 9.6 mg doses): less than proportional increase | Cmax and AUC versus dose ([1]; Groups I and II, doses from 0.3-3.6 mg): dose-related increase | Cmax ([1]; plasma, after 2.4 mg of delta-9-THC administered by MDI (FIGS. 6 and 7)): 0.77 ng/mL | achievement of steady state ([2]; 1.2 mg delta-9-THC three times daily): apparently reached after six days of dosing | Cmax, Geometric Mean (Range) ([2]; 1.2 mg m.d. (three times daily), Day 12, Group I): 0.54 (0.26-1.26) ng/mL | AUC(0-8), Arithmetic Mean (SD) ([2]; 1.2 mg m.d., Day 12, Group I): 2.07 (0.99) ng · h/mL | AUC(0-8), Geometric Mean (Range) ([2]; 1.2 mg m.d., Day 12, Group I): 1.89 (1.13-3.48) ng · h/mL | Cmax, Arithmetic Mean (SD) ([2]; 1.2 mg m.d., Day 12, Group I): 0.61 (0.36) ng/mL | tmax, Arithmetic Mean (SD) ([2]; 1.2 mg m.d., Day 12, Group I): 0.48 (0.36) h | tmax, median (range) ([2]; 1.2 mg m.d., Day 12, Group I): 0.42 (0.17-1.00) h | t½, Arithmetic Mean (SD) ([2]; 1.2 mg m.d., Day 12, Group I): 14.9 (6.08) h | t½, Geometric Mean (Range) ([2]; 1.2 mg m.d., Day 12, Group I): 13.9 (7.41-25.2) h | AUC(0-8), Arithmetic Mean (SD) ([2]; 1.2 mg s.d., Day 1): 1.50 (0.88) ng · h/mL | AUC(0-8), Geometric Mean (Range) ([2]; 1.2 mg s.d., Day 1): 1.26 (0.41-2.66) ng · h/mL | AUC(0-inf), Arithmetic Mean (SD) ([2]; 1.2 mg s.d., Day 1): 1.93 (1.22) ng · h/mL | AUC(0-inf), Geometric Mean (Range) ([2]; 1.2 mg s.d., Day 1): 1.56 (0.49-3.39) ng · h/mL | tmax, Arithmetic Mean (SD) ([2]; 1.2 mg s.d., Day 1): 0.48 (0.75) h | tmax, median (range) ([2]; 1.2 mg s.d., Day 1): 0.17 (0.17-2.00) h | t½, Arithmetic Mean (SD) ([2]; 1.2 mg s.d., Day 1): 4.19 (1.67) h | t½, Geometric Mean (Range) ([2]; 1.2 mg s.d., Day 1): 3.91 (2.55-6.01) h | Cmax, Arithmetic Mean (SD) ([2]; 1.2 mg s.d., Day 1, plasma): 0.86 (0.57) ng/mL | Cmax, Geometric Mean (Range) ([2]; 1.2 mg s.d., Day 1, plasma): 0.63 (0.10-1.55) ng/mL | Cmax, Geometric Mean (Range) ([2]; 3.6 mg m.d. (three times daily), Day 19, Group II): 2.87 (1.27-6.97) ng/mL | AUC(0-8), Arithmetic Mean (SD) ([2]; 3.6 mg m.d., Day 19, Group II): 10.1 (6.13) ng · h/mL | AUC(0-8), Geometric Mean (Range) ([2]; 3.6 mg m.d., Day 19, Group II): 8.69 (4.06-19.8) ng · h/mL | Cmax, Arithmetic Mean (SD) ([2]; 3.6 mg m.d., Day 19, Group II): 3.40 (2.17) ng/mL | tmax, Arithmetic Mean (SD) ([2]; 3.6 mg m.d., Day 19, Group II): 0.27 (0.20) h | tmax, median (range) ([2]; 3.6 mg m.d., Day 19, Group II): 0.17 (0.17-0.67) h | t½, Arithmetic Mean (SD) ([2]; 3.6 mg m.d., Day 19, Group II): 57.3 (37.9) h | t½, Geometric Mean (Range) ([2]; 3.6 mg m.d., Day 19, Group II): 39.5 (5.65-94.2) h | AUC(0-8), Arithmetic Mean (SD) ([2]; 3.6 mg s.d., Day 1): 5.15 (3.04) ng · h/mL | AUC(0-8), Geometric Mean (Range) ([2]; 3.6 mg s.d., Day 1): 4.44 (2.22-9.46) ng · h/mL | AUC(0-inf), Arithmetic Mean (SD) ([2]; 3.6 mg s.d., Day 1): 6.82 (3.98) ng · h/mL | AUC(0-inf), Geometric Mean (Range) ([2]; 3.6 mg s.d., Day 1): 5.86 (3.03-11.6) ng · h/mL | tmax, Arithmetic Mean (SD) ([2]; 3.6 mg s.d., Day 1): 0.18 (0.01) h | tmax, median (range) ([2]; 3.6 mg s.d., Day 1): 0.17 (0.17-0.20) h | t½, Arithmetic Mean (SD) ([2]; 3.6 mg s.d., Day 1): 5.98 (2.91) h | t½, Geometric Mean (Range) ([2]; 3.6 mg s.d., Day 1): 5.44 (2.96-11.0) h | Cmax, Arithmetic Mean (SD) ([2]; 3.6 mg s.d., Day 1, plasma): 2.21 (1.37) ng/mL | Cmax, Geometric Mean (Range) ([2]; 3.6 mg s.d., Day 1, plasma): 1.91 (1.12-4.38) ng/mL | achievement of steady state ([2]; 3.6-mg dose level three times daily): achieved after seven or eight days of dosing | accumulation during multiple dosing ([2]; 8-hours dosing interval): accumulation occurred during multiple dosing | Ratio AUC(0-8) m.d./AUC(0-8) s.d. (Accumulation factor), Mean ([2]; Group I, 1.2 mg): 1.59 | Ratio AUC(0-8) m.d./AUC(0-inf) s.d. (Linearity), Mean ([2]; Group I, 1.2 mg): 1.30 | Ratio AUC(0-8) m.d./AUC(0-8) s.d. (Accumulation factor), Mean ([2]; Group II, 3.6 mg): 2.10 | Ratio AUC(0-8) m.d./AUC(0-inf) s.d. (Linearity), Mean ([2]; Group II, 3.6 mg): 1.55 | dose proportionality: geometric mean ratio (3.6 mg:1.2 mg) of dose-normalized AUC(0-8) (90% confidence interval) ([2]; Multiple dose): 1.53 (0.87-2.69) | dose proportionality: geometric mean ratio (3.6 mg:1.2 mg) of dose-normalized Cmax (90% confidence interval) ([2]; Multiple dose): 1.79 (0.95-3.36) | dose proportionality: geometric mean ratio (3.6 mg:1.2 mg) of dose-normalized AUC(0-8) (90% confidence interval) ([2]; Single dose): 1.18 (0.60-2.33) | dose proportionality: geometric mean ratio (3.6 mg:1.2 mg) of dose-normalized AUC(0-inf) (90% confidence interval) ([2]; Single dose): 1.25 (0.61-2.57) | dose proportionality: geometric mean ratio (3.6 mg:1.2 mg) of dose-normalized AUC(0-t) (90% confidence interval) ([2]; Single dose): 1.43 (0.64-3.20) | dose proportionality: geometric mean ratio (3.6 mg:1.2 mg) of dose-normalized Cmax (90% confidence interval) ([2]; Single dose): 1.01 (0.42-2.42) | Cmax, fold lower compared to the parent compound ([2]; after multiple dosing): ~13 fold | exposure compared to the parent drug (AUC(0-8)) ([2]; after multiple dosing): approximately two-fold lower | Cmax, fold lower compared to the parent compound ([2]; after single dosing): approximately 25 fold | dose proportionality of pharmacokinetic parameters ([2]; after single or multiple dose administration): not found to deviate significantly | plasma concentration-time curve, elimination profile ([2]; both dose levels): at least a bi-phasic elimination profile | time of peak plasma concentration ([2]; both dose levels, post-dose): between 10 minutes and 2 hours post-dose | exposure compared to the parent drug (AUC(0-inf)) ([2]; following single dose administration): approximately four-fold lower | Cmax and AUC values versus dose ([2]; single and multiple dose administration, 1.2 and 3.6 mg): Dose-related increases | Terminal elimination half-lives (summary estimate) ([2]; summary, best estimated after multiple dosing): ~40 h
